Active and inactive are the calls of the source.
Legend:
[1] = THP-1 cell cytotoxicity, cytotoxicity control, set 5 (AID 588443); assay type: functional
[2] = Vero cell viability loss – purified and synthesized compounds, set 6, cytotoxicity control for M. tuberculosis inhibitor project, dose response (AID 588445); assay type: functional; conditions: Mycobacterium tuberculosis
HEK293 = experiment: Fluorescence-based counterscreen for potentiators or agonists of NPY-Y2: cell-based high-throughput dose response assay to identify inhibitors of cyclic nucleotide gated ion channel (CNGC) activity. In this assay, the parental HEK293 cell line transfected with a cyclic-nucleotide gated ion channel (CNGC)-based cAMP sensor is used to measure inhibition of isoproterenol-induced CNGC activity by test compound.; assay type: functional; conditions: Homo sapiens;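 further: stimulus is 1 µM isoproterenol at EC100 plus PDE inhibitor Ro 20-1724 at 25 µM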
[3] = biological target: T1, Neuropeptide Y receptor type 2 (Homo sapiens, UniProt P49146); experiment: Fluorescence-based cell-based high-throughput dose response assay for agonists of NPY-Y2. [Related pubchem assays: 1703 (Screening assay (CNGC inhibitors).), 1359 (Screening assay (NPY-Y2 potentiators or agonists).), 1304 (Screening assay (NPY-Y1 potentiators or agonists).), 1710 (Screening assay (NPY-Y2 agonists).), 1791 (Summary AID.)]; assay type: functional
T1 sequence (P49146 whole entry): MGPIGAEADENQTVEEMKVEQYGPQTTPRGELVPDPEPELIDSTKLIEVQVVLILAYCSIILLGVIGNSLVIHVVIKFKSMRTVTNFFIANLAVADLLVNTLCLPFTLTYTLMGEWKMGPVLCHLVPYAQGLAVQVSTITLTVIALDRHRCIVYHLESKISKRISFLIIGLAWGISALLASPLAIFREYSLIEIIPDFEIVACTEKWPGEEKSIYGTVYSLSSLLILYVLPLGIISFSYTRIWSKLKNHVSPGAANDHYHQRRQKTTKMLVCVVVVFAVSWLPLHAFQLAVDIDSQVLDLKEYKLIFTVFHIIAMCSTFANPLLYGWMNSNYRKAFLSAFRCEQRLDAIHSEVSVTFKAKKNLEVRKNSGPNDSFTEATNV

[4] = biological target: T2, Neuropeptide Y receptor type 1 (Homo sapiens, UniProt P25929); experiment: Fluorescence-based counterscreen for agonists of NPY-Y2: cell-based high-throughput dose response assay for agonists of NPY-Y1.; assay type: functional
T2 sequence (P25929 whole entry): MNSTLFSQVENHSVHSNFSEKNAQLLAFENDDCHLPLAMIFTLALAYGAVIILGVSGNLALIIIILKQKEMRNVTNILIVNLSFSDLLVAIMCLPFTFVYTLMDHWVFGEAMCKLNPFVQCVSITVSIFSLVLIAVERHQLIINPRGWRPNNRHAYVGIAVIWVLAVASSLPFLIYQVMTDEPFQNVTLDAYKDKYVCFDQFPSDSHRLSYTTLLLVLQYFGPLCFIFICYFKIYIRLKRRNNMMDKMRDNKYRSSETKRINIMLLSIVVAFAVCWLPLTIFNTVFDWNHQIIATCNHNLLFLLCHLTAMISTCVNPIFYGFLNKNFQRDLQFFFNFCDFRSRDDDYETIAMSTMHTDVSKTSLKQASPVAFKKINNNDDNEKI

Melanocortin receptor 4 = Melanocortin receptor 4 (Homo sapiens, UniProt P32245); experiment: inhibitors of MC4R cAMP signaling – cell-based, TR-FRET, biased antagonists, dose response (AID 602298); assay type: functional;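 further: antagonist potency against agonist-stimulated cAMP production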
[5] = cAMP pathway inhibition in counterscreen cell line – TR-FRET cAMP detection, counter-screen for MC4R biased antagonist project, dose response (AID 602305); assay type: functional, cell-based;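 further: U2OS cells stimulated with forskolin near its EC80 as the cAMP inducer; potency is for inhibition of forskolin-stimulated cAMP signaling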
[6] = biological target: T3, Melanin-concentrating hormone receptor 1 (Homo sapiens, UniProt Q99705); experiment: Late-stage fluorescence-based counterscreen for antagonists of the G-protein coupled receptor 7 (GPR7): cell-based dose response assay to identify antagonists of the melanin-concentrating hormone receptor 1 (MCHR1) Set 6.; assay type: functional
[7] = biological target: T4, Neuropeptides B/W receptor type 1 (Homo sapiens, UniProt P48145); experiment: human NPBW1 receptor blockade, IC50 – cell-based, fluorescence, dose response, set 6, late-stage follow-up (AID 588583); assay type: functional
T4 sequence (P48145 whole entry): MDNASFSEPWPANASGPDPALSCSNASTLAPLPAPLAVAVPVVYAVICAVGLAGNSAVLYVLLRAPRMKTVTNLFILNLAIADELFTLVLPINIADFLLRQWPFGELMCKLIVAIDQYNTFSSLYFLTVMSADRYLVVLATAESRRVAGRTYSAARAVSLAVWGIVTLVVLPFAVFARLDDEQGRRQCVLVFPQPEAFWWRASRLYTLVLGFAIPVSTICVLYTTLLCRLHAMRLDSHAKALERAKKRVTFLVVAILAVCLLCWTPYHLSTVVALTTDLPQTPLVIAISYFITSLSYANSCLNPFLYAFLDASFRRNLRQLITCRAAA

[8] = biological target: T5, High affinity choline transporter 1 (Homo sapiens, UniProt Q9GZV3); experiment: human choline transporter blockers, potency – cell-based, 5-point CRC, membrane potential dye, dose response (AID 504840); assay type: functional
T5 sequence (Q9GZV3 whole entry): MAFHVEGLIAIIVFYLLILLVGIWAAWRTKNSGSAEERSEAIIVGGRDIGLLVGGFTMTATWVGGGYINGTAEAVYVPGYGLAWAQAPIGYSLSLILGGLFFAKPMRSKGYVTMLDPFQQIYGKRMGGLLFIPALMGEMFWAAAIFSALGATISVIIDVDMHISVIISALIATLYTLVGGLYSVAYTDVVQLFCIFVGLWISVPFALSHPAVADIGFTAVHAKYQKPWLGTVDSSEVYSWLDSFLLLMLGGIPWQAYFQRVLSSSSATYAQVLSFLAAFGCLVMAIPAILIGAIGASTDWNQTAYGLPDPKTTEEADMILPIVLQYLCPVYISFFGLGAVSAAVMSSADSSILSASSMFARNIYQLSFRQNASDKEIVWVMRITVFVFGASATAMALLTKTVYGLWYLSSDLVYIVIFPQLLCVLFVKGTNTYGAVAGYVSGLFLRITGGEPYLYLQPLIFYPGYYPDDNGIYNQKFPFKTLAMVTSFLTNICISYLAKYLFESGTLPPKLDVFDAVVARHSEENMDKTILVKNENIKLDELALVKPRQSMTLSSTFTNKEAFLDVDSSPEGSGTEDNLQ

[9] = biological target: T5, High affinity choline transporter 1; experiment: human choline transporter blockers, potency – cell-based, 10-point CRC, membrane potential dye, dose response (AID 588401); assay type: functional;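 further: membrane potential dye fluorescence of choline-evoked depolarization via CHT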
[10] = biological target: T4, Neuropeptides B/W receptor type 1; experiment: human NPBW1 receptor blockade, IC50 – cell-based, fluorescence, dose response, set 5, late-stage follow-up (AID 588566); assay type: functional
[11] = biological target: T3, Melanin-concentrating hormone receptor 1; experiment: Late-stage fluorescence-based counterscreen for antagonists of the G-protein coupled receptor 7 (GPR7): cell-based dose response assay to identify antagonists of the melanin-concentrating hormone receptor 1 (MCHR1) Set 5.; assay type: functional

T3 sequence (Q99705 whole entry): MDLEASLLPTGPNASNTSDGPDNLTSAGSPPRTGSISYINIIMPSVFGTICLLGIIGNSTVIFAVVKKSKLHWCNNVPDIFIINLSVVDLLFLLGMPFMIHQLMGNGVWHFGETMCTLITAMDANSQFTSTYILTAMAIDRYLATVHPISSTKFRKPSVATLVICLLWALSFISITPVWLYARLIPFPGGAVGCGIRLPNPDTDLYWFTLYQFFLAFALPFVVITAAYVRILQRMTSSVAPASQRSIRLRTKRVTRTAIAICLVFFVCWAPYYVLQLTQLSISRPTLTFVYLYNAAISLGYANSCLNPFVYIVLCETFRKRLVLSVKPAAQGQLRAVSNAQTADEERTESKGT
Melanocortin receptor 4, sequence (P32245 whole entry): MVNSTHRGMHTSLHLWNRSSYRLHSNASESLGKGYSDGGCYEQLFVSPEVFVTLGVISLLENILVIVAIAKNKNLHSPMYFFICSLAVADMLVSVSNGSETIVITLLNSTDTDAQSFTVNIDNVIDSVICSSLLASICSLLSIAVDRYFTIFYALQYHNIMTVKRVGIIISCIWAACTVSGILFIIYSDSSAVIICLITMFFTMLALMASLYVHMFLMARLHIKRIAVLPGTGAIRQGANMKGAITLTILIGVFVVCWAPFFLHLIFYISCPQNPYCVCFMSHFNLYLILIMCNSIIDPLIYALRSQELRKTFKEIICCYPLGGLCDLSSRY

In the case of `O=C(c1ccc(CNc2c(N3CCCC3)c(=O)c2=O)cc1)N1CC=C(c2ccccc2)CC1`, the CC50 [1] is reported as 75.8 µM (active) and the CC50 [2] is reported as > 100 µM (inconclusive).

In the case of `O=C(Nc1ccccc1C(=O)N1CCCC1)c1ccc(Cl)c([N+](=O)[O-])c1`, the EC50 (HEK293) is reported as 28 µM (not active), the EC50 [3] is reported as 27.9 µM (not active) and the EC50 [4] is reported as 18.6 µM (not active). For the same compound, the IC50 (Melanocortin receptor 4) was 20.6 µM (inactive) and the IC50 [5] was > 64.6 µM (inactive).

In the case of `N#CC(c1ccc(F)cc1F)c1c(Cl)cnn(Cc2cccc3ccccc23)c1=O` (stereo not drawn), the IC50 [6] is reported as 214 nM (active) and the IC50 [7] is reported as 214 nM (active).

In the case of `O=C(O)CC1=C(Nc2ccccc2)C(=O)N(c2ccccc2)C1c1ccc(F)cc1` (stereo not drawn), the IC50 [8] is reported as 3.9 µM (active) and the IC50 [9] is reported as 751 nM (active).

For `COc1ccc(Oc2c(Cl)cnn(Cc3ccc(C(=O)c4ccccc4)cc3)c2=O)cc1`, the IC50 [10] was 5.25 µM (active) and the IC50 [11] was 2.46 µM (active).

Reference: ChEMBL document CHEMBL1201862, “PubChem BioAssay data set” (2004)
